This is an account of results in PubChem BioAssay AID330 (DTP/NCI, 2004).

“And” between values parts separate entries of the source, which are not always exact repeats. Identical values can stand only once. Inconclusive results and toxic doses are left out. Peptide text beside a SMILES is read from it. * marks the point of attachment. Boc = CC(C)(C)OC(=O)*

This test has as its system P388 leukemia ip, CD2F1 mice, survival T/C. The experiment in a line: NCI In Vivo Anticancer Drug Screen. Data for tumor model P388 Leukemia (intraperitoneal) in CD2F1 (CDF1) mice. The note with it: endpoint: median survival time, higher = longer survival. Summed up:
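Mice carrying the transplanted tumor received test compound or vehicle. Survival was recorded in each group, and the value is the treated-group measurement divided by that of the vehicle-treated control group.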

[1] abbreviates: dose: 0.78 mg/kg/injection, schedule: Q01DX009 (ip), vehicle: saline.
Where [2] appears, read: dose: 60.0 mg/kg/injection, schedule: Q01DX005 (ip), vehicle: saline with Tween-80.
The mark [3] stands for this setting: dose: 120.0 mg/kg/injection, schedule: Q01DX005 (ip), vehicle: saline with Tween-80.
Where [4] appears, read: dose: 240.0 mg/kg/injection, schedule: Q01DX005 (ip), vehicle: saline with Tween-80.
The mark [5] stands for this setting: dose: 50.0 mg/kg/injection, schedule: Q01DX005 (ip), vehicle: Klucel (hydroxypropylcellulose) (HPC).
[6] abbreviates: dose: 100.0 mg/kg/injection, schedule: Q01DX005 (ip), vehicle: Klucel (hydroxypropylcellulose) (HPC).
Where [7] appears, read: dose: 200.0 mg/kg/injection, schedule: Q01DX005 (ip), vehicle: Klucel (hydroxypropylcellulose) (HPC).

Regarding `COc1ccc(CC2C(=O)NC(C)C(=O)N(C)C3Cc4ccc(cc4)Oc4cc(ccc4O)CC(C(=O)NC(C)C(=O)NC(C)C(=O)N2C)N(C)C3=O)cc1` (configuration not stated), the T/C by setting is: (dose: 0.19 mg/kg/injection, schedule: Q03HX024 (ip), vehicle: other) 156 % of control; (dose: 0.38 mg/kg/injection, schedule: Q03HX024 (ip), vehicle: other) 171 % of control; (dose: 0.45 mg/kg/injection, schedule: Q01DX005 (iv), vehicle: other) 108 % of control; (dose: 0.5 mg/kg/injection, schedule: Q01DX009 (ip), vehicle: other) 161 % of control; (dose: 0.75 mg/kg/injection, schedule: Q03HX024 (ip), vehicle: other) 167 % of control; (dose: 0.9 mg/kg/injection, schedule: Q01DX005 (ip), vehicle: other) 166 % of control. For the same compound, the T/C is, setting by setting: (dose: 0.9 mg/kg/injection, schedule: Q01DX005 (iv), vehicle: other) 96 % of control; (dose: 1.0 mg/kg/injection, schedule: Q01DX009 (ip), vehicle: other) 172 % of control; (dose: 1.0 mg/kg/injection, schedule: Q01DX009 (ip), vehicle: saline with Tween-80) 163 % of control; (dose: 1.13 mg/kg/injection, schedule: Q01DX001 (iv), vehicle: other) 103 % of control; (dose: 1.13 mg/kg/injection, schedule: Q03HX008 (ip), vehicle: other) 162 % of control; (dose: 1.5 mg/kg/injection, schedule: Q04DX003 (ip), vehicle: other) 157 % of control. Further, the T/C (dose: 1.8 mg/kg/injection, schedule: Q01DX005 (ip), vehicle: other) is 173 % of control; the T/C (dose: 1.8 mg/kg/injection, schedule: Q01DX005 (iv), vehicle: other) was 99 % of control; the T/C (dose: 2.0 mg/kg/injection, schedule: Q01DX009 (ip), vehicle: other) is 192 % of control; the T/C (dose: 2.0 mg/kg/injection, schedule: Q01DX009 (ip), vehicle: saline with Tween-80) is 152 % of control and 159 % of control; the T/C (dose: 2.0 mg/kg/injection, schedule: Q01DX009 (oral), vehicle: other) is 105 % of control; the T/C (dose: 2.25 mg/kg/injection, schedule: Q01DX001 (iv), vehicle: other) is 105 % of control. Further, the T/C was 152 % of control (dose: 3.0 mg/kg/injection, schedule: Q04DX003 (ip), vehicle: other); 163 % of control (dose: 3.6 mg/kg/injection, schedule: Q01DX005 (ip), vehicle: other); 116 % of control (dose: 3.6 mg/kg/injection, schedule: Q01DX005 (iv), vehicle: other); 193 % of control (dose: 4.0 mg/kg/injection, schedule: Q01DX009 (ip), vehicle: other); 174 % of control and 186 % of control (dose: 4.0 mg/kg/injection, schedule: Q01DX009 (ip), vehicle: saline with Tween-80); 103 % of control (dose: 4.0 mg/kg/injection, schedule: Q01DX009 (oral), vehicle: other). The T/C reads like this: (dose: 4.5 mg/kg/injection, schedule: Q01DX001 (iv), vehicle: other) 111 % of control; (dose: 6.0 mg/kg/injection, schedule: Q04DX003 (ip), vehicle: other) 163 % of control; (dose: 7.2 mg/kg/injection, schedule: Q01DX005 (ip), vehicle: other) 182 % of control; (dose: 7.2 mg/kg/injection, schedule: Q01DX005 (iv), vehicle: other) 153 % of control; (dose: 8.0 mg/kg/injection, schedule: Q01DX009 (ip), vehicle: other) 233 % of control; (dose: 8.0 mg/kg/injection, schedule: Q01DX009 (ip), vehicle: saline with Tween-80) 155 % of control. Further, the T/C is 96 % of control (dose: 8.0 mg/kg/injection, schedule: Q01DX009 (oral), vehicle: other); 123 % of control (dose: 9.0 mg/kg/injection, schedule: Q01DX001 (iv), vehicle: other); 153 % of control (dose: 12.0 mg/kg/injection, schedule: Q04DX003 (ip), vehicle: other); 97 % of control (dose: 16.0 mg/kg/injection, schedule: Q01DX009 (oral), vehicle: other); 94 % of control (dose: 32.0 mg/kg/injection, schedule: Q01DX009 (oral), vehicle: other).

In the case of `CCCCCCCCCCCCCCC[N+]1(CC)CCCC1`, the T/C was 108 % of control under setting [1]; 114 % of control (dose: 1.56 mg/kg/injection, schedule: Q01DX009 (ip), vehicle: saline); 114 % of control (dose: 3.12 mg/kg/injection, schedule: Q01DX009 (ip), vehicle: saline).

For the compound `NN1C(=O)CS/C1=N\C(=S)N/N=C1/SCC(=O)N1N`, the T/C was 94 % of control (dose: 0.04 mg/kg/injection, schedule: Q01DX009 (ip), vehicle: saline); 97 % of control (dose: 0.09 mg/kg/injection, schedule: Q01DX009 (ip), vehicle: saline); 99 % of control (dose: 0.19 mg/kg/injection, schedule: Q01DX009 (ip), vehicle: saline); 98 % of control and 99 % of control under setting [1].

As to `CCCCOC1NC(=O)NC(=O)C1(F)C(=O)OCC` (configuration not stated), the T/C is 108 % of control under setting [2], 117 % of control under setting [3] and 121 % of control under setting [4].

For `O=C1c2cccc3cccc(c23)C(=O)N1CC1CCCO1` (configuration not stated), the T/C by setting is: (dose: 50.0 mg/kg/injection, schedule: Q01DX005 (ip), vehicle: saline with Tween-80) 99 % of control; (dose: 100.0 mg/kg/injection, schedule: Q01DX005 (ip), vehicle: saline with Tween-80) 101 % of control; (dose: 200.0 mg/kg/injection, schedule: Q01DX005 (ip), vehicle: saline with Tween-80) 94 % of control.

Consider `CC1Cc2ccccc2/C1=N/NC(N)=O` (configuration not stated), for which the T/C by setting is: under setting [5], 103 % of control; under setting [6], 100 % of control; under setting [7], 99 % of control.

`Cc1ccc2nc(CC(=O)c3cccnc3)c(CC(=O)c3cccnc3)nc2c1`: the T/C under setting [2] is 93 % of control, the T/C under setting [3] was 100 % of control and the T/C under setting [4] was 100 % of control.

As to `CC(CN=C(CC(=O)c1ccc(Br)cc1)c1ccccc1)N=C(CC(=O)c1ccc(Br)cc1)c1ccccc1` (configuration not stated), the T/C (dose: 100.0 mg/kg/injection, schedule: Q04DX003 (ip), vehicle: saline with Tween-80) is 90 % of control; the T/C (dose: 200.0 mg/kg/injection, schedule: Q04DX003 (ip), vehicle: saline with Tween-80) is 87 % of control; the T/C (dose: 400.0 mg/kg/injection, schedule: Q04DX003 (ip), vehicle: saline with Tween-80) is 87 % of control.

Regarding `Cc1ccc2c(c1O)NC(O)c1cccn1C2=O` (configuration not stated), the T/C by setting is: (dose: 0.1 mg/kg/injection, schedule: Q01DX005 (ip), vehicle: water) 99 % of control; (dose: 0.2 mg/kg/injection, schedule: Q01DX005 (ip), vehicle: water) 111 % of control; (dose: 0.4 mg/kg/injection, schedule: Q01DX005 (ip), vehicle: water) 100 % of control; (dose: 0.8 mg/kg/injection, schedule: Q01DX005 (ip), vehicle: water) 98 % of control; (dose: 1.6 mg/kg/injection, schedule: Q01DX005 (ip), vehicle: water) 96 % of control; (dose: 5.0 mg/kg/injection, schedule: Q01DX005 (ip), vehicle: distilled water + Tween-80) 92 % of control. For the same compound, the T/C is 98 % of control (dose: 10.0 mg/kg/injection, schedule: Q01DX005 (ip), vehicle: distilled water + Tween-80); 91 % of control (dose: 20.0 mg/kg/injection, schedule: Q01DX005 (ip), vehicle: distilled water + Tween-80); 86 % of control (dose: 80.0 mg/kg/injection, schedule: Q01DX005 (ip), vehicle: distilled water + Tween-80).

`CCN(CC)CCN1N=C(c2ccccc2O)OCC1=O`: the T/C is 108 % of control (dose: 50.0 mg/kg/injection, schedule: Q01DX009 (ip), vehicle: saline with Tween-80); 103 % of control (dose: 100.0 mg/kg/injection, schedule: Q01DX009 (ip), vehicle: saline with Tween-80); 98 % of control (dose: 200.0 mg/kg/injection, schedule: Q01DX009 (ip), vehicle: saline with Tween-80).

As for `CCOC(=O)C(CCC(=O)O)NC(=O)C(CCSC)NC(=O)OC(C)(C)C` (stereo not drawn) (Boc-Met-Glu-OEt; configuration not given here), the T/C by setting is: under setting [5], 102 % of control; under setting [6], 102 % of control; under setting [7], 97 % of control.
